Counter-ions that a name gives are not always drawn.
How the values were obtained:
S. aureus (CiproS) = experiment: In vitro MIC, agar dilution; format: cell-based; conditions: Staphylococcus aureus
S. aureus (CiproR) = experiment: In vitro MIC, agar dilution; format: cell-based; conditions: Staphylococcus aureus
S. pneumoniae (PenS) = experiment: In vitro MIC, agar dilution; format: cell-based; conditions: Streptococcus pneumoniae
S. pneumoniae (PenR) = experiment: In vitro MIC, agar dilution; format: cell-based; conditions: Streptococcus pneumoniae
E. faecium (CiproS) = experiment: In vitro MIC, agar dilution; format: cell-based; conditions: Enterococcus faecium
E. faecium (CiproR) = experiment: In vitro MIC, agar dilution; format: cell-based; conditions: Enterococcus faecium, read-out: MIC Range
E. faecalis (VanS) = experiment: In vitro MIC, agar dilution; format: cell-based; conditions: Enterococcus faecalis
Enterococcus spp. (VanR) = experiment: In vitro MIC, agar dilution; format: cell-based
E. coli = experiment: In vitro MIC, agar dilution; format: cell-based; conditions: Escherichia coli, 25 isolates
Method: Each plate was inoculated with 1:100 (or 1:10 for slow-growing strains, primarily Micrococcus and Streptococcus) dilutions of up to 32 different microorganisms, using a Steers replicator block calibrated to deliver approximately 10^4 colony forming units (CFU's). The inoculated plates were incubated at from about 35° C. to about 37 ° C. for approximately 20-24 hours. In addition, a control plate using BHI agar containing no test compound was prepared and incubated at the beginning and at the end of each test. The quinolone antibacterial ciprofloxacin was used as a control ("Cntl").
The numbers below the microorganism species indicate the nunbers of isolates tested. […] The MIC is defined as the lowest concentration of test compound yielding no growth (a slight haze or sparsely isolated colonies at the inoculum spot) as compared to the growth control containing no test compound.

P. aeruginosa (CiproS) = experiment: In vitro MIC, agar dilution; format: cell-based; conditions: Pseudomonas aeruginosa
P. aeruginosa (CiproR) = experiment: In vitro MIC, agar dilution; format: cell-based; conditions: Pseudomonas aeruginosa, P. aeruginosa (CiproR), 20 isolates
B. fragilis = experiment: In vitro MIC, agar dilution; format: cell-based; conditions: Bacteroides fragilis
[1] = mouse, in vivo, ip, 100 mg/kg
in vivo = conditions: mouse, ip
[2] = system: staphylococcus aureus NTCC 10649; experiment: In vivo efficacy, mouse infection (ED50); conditions: Staphylococcus aureus, NTCC10649, in Mus musculus, 168 h
[3] = system: Streptococcus pneumoniae 6303; experiment: In vivo efficacy, mouse infection (ED50); conditions: Streptococcus pneumoniae, 6303, in Mus musculus, 168 h
Escherichia coli JUHL = experiment: In vivo efficacy, mouse infection (ED50); conditions: Escherichia coli, in Mus musculus, 168 h

Cc1c(N2CC[C@H](N)C2)c(F)cn2c(=O)c(C(=O)O)cc(C3CC3)c12 [Example 2, 1-cyclopropyl-8-(3(S)-3-amino-1-pyrrolidinyl)-7-fluoro-9-methvl-4-oxo-4H-quinolizine-3-carboxylic acid hydrochloride]
MIC90 (S. aureus (CiproS)): 0.015 µg/mL
MIC50 (S. aureus (CiproS); S. aureus (CiproS), 21 isolates, read-out: MIC50): 0.008 µg/mL
MIC (S. aureus (CiproS); S. aureus (CiproS), 21 isolates, read-out: MIC Range): 0.008 to 0.015 µg/mL
MIC90 (S. aureus (CiproR)): 0.25 µg/mL
MIC50 (S. aureus (CiproR); S. aureus (CiproR), 25 isolates, read-out: MIC50): 0.25 µg/mL
MIC (S. aureus (CiproR); S. aureus (CiproR), 25 isolates, read-out: MIC Range): 0.03 to 1 µg/mL
MIC50 (S. pneumoniae (PenS)): 0.03 µg/mL
MIC90 (S. pneumoniae (PenS)): 0.03 µg/mL
MIC (S. pneumoniae (PenS); S. pneumoniae (PenS), 20 isolates, read-out: MIC Range): 0.015 to 0.03 µg/mL
MIC50 (S. pneumoniae (PenR)): 0.03 µg/mL
MIC90 (S. pneumoniae (PenR)): 0.03 µg/mL
MIC (S. pneumoniae (PenR); S. pneumoniae (PenR), 25 isolates, read-out: MIC Range): 0.03 µg/mL
MIC90 (E. faecium (CiproS)): 0.25 µg/mL
MIC (E. faecium (CiproS); read-out: MIC Range): 0.25 to 0.5 µg/mL
MIC50 (E. faecium (CiproS); E. faecium (CiproS), 16 isolates, read-out: MIC50): 0.25 µg/mL
MIC (E. faecium (CiproR)): 0.5 to 2 µg/mL
MIC90 (E. faecalis (VanS)): 0.12 µg/mL
MIC50 (E. faecalis (VanS); E. faecalis (VanS), 17 isolates, read-out: MIC50): 0.06 µg/mL
MIC (E. faecalis (VanS); E. faecalis (VanS), 17 isolates, read-out: MIC Range): 0.03 to 0.12 µg/mL
MIC90 (Enterococcus spp. (VanR); Enterococcus): 0.25 µg/mL
MIC50 (Enterococcus spp. (VanR); Enterococcus spp. (VanR), 21 isolates, read-out: MIC50): 0.25 µg/mL
MIC (Enterococcus spp. (VanR); Enterococcus spp. (VanR), 21 isolates, read-out: MIC Range): 0.12 to 2 µg/mL
MIC (E. coli): 0.004 to 0.015 µg/mL
MIC50 (E. coli; read-out: MIC50): 0.004 µg/mL
MIC90 (E. coli; read-out: MIC90): 0.008 µg/mL
MIC90 (P. aeruginosa (CiproS)): 0.25 µg/mL
MIC50 (P. aeruginosa (CiproS); P. aeruginosa (CiproS), 24 isolates, read-out: MIC50): 0.06 µg/mL
MIC (P. aeruginosa (CiproS); P. aeruginosa (CiproS), 24 isolates, read-out: MIC Range): 0.015 to 0.5 µg/mL
MIC50 (P. aeruginosa (CiproR); read-out: MIC50): 2 µg/mL
MIC90 (P. aeruginosa (CiproR); read-out: MIC90): 2 µg/mL
MIC (P. aeruginosa (CiproR); read-out: MIC Range): 1 to 4 µg/mL
MIC90 (B. fragilis): 0.5 µg/mL
MIC (B. fragilis; read-out: MIC Range): 0.06 to 0.5 µg/mL
MIC50 (B. fragilis; B. fragilis, 18 isolates, read-out: MIC50): 0.12 µg/mL
body weight loss [1]: 38%
LD50 at 504 h (in vivo): 38.8 mg/kg
ED50 ([2]; po): 3.4 mg/kg
ED50 ([2]; sc): 0.6 mg/kg
ED50 ([3]; po): 5.3 mg/kg
ED50 ([3]; sc): 1.6 mg/kg
ED50 (Escherichia coli JUHL; po): 0.6 mg/kg
ED50 (Escherichia coli JUHL; sc): 0.1 mg/kg

Reference: patent publication US5977133A, “Pyridone antibiotic with improved safety profile” (priority 1998, dated 1999)
